Source: patent US20230064978A1, “CYCLIC PEPTIDE RECEPTOR LANTHIONINE SYNTHETASE C-LIKE PROTEIN (LANCL) AND USES THEREOF” (LATERAL IP PTY LTD, priority 2019, published 2023)
Entries after “also recorded” stand apart in the source; their conditions may differ. Bridges are numbered along the chain shown (N, C = ends). Where no end group is shown, it is not given here.

Key:
[1] = test system: tissue homogenates of nerve from neuropathic animals; test: PAL cross-linking to nerve tissue homogenates and gel separation; assay type: binding
From the text: Using a ligand driven approach, the present inventors utilized the photo-activatable cross-linking PAL from Evotec A.G. (Photo-Activated Labelling) technology that derivatizes the active cyclic peptides to allow UV-induced cross-linking to binding targets (described herein as peptide/SEQ ID NO:X-PAL). This allows subsequent detection in cells, gels of tissue isolates or in pull-down of the peptide/target complex for sequencing by mass spectroscopy (PALMS).
LAT9991-PAL was cross-linked to tissue homogenates of nerve from neuropathic animals.

[2] = test system: Dorsal root ganglion (DRG) neurons; test: Cell-binding fluorescence on cultured DRG neurons, paclitaxel neuropathy model; assay type: cell-based; conditions: DRG neurons from paclitaxel-treated vs untreated mice; probe 5 μM (FIG. 1)
Protocol: The cell-binding fluorescence protocol can be briefly described as follows. […] Model of chemotherapy-induced peripheral neuropathy was generated using paclitaxel in female C57/B16 mice—[…] Paclitaxel or vehicle (10 ml/kg body weight) injected intravenously (i.v.) on day 1, day 3 and day 5. Mechanical allodynia was confirmed using von Frey (VF) filaments 9 days after starting vehicle or paclitaxel treatment (left and right paws). Each of the ten C57/B16 mice (vehicle control and paclitaxel treated) were euthanized by CO2 inhalation and individually dissected.
L5-L6 DRGs were rapidly dissected and placed in Petri dishes containing dissection medium. Meninges were removed.
Each DRG pool was successively: • incubated in dissociation buffer (0.5 mg/ml Dispase, 2.5 mg/ml collagenase, 6 mg/ml BSA, 10 mM HEPES) for 30 min at 37° C. under gentle agitation at 800 rounds/min; • washed; • triturated in culture medium and filtered on a 40 μm filter; • re-suspended in 1 ml culture medium supplemented with nerve growth factor (NGF) 250 ng/ml.
Dissociated cells from each pool were counted, seeded on Poly-D-Lysin- and Laminin-coated μ slides at the density of 4×10^4 cells/well and incubated at 37° C. 5% CO2. The medium was changed daily for 3 days. […]

NCI-H358 cells = test: Confocal imaging of LAT9991F-PAL binding and LANCL1 co-localization, with siRNA knockdown and competitors, in NCI-H358 cells; assay type: cell-based; conditions: SiLANCL1 NCI-H358 cells; competitor 25 μM
Protocol: A photoactivatable analog of LAT8881 (LAT9991F (SEQ ID NO:13)-PAL), was used to conduct the experiments. A549 or NCI-H358 cells were treated with LAT9991F-PAL at 2.5 μM during 30 minutes. Fluorescent signal was recorded after that LAT9991F-PAL was immobilized on its target(s) site by UV-crosslinking and the LAT9991F-PAL-target complexes were labeled with the green-fluorescent Alexa Fluor 488 alkyne dye by click-chemistry. Control cells were treated with the vehicle, dimethyl sulfoxide (DMSO), and with LAT9991F-PAL in combination with a large excess of the parent drug LAT8881 or other competitors, GSH, NSC61610 or ABA to evaluate, respectively, the non-specific fluorescent background and the specificity of the staining. For colocalization experiments, subsequently, immunofluorescence staining with an anti-LANCL1 or LANCL2 antibodies and an Alexa 568 (red) conjugated secondary antibody was performed. Images stacks of cells labeled with probes were collected and evaluated for the degree of colocalization of LAT9991F-PAL-target complexes and LANCL1 or LANCL2 using either the Measure Colocalization plugin in Metamorph or the JACoP plugin in ImageJ).
A549 or NCI-H358 cells (ATCC CCL-185 and ATCC CRL-5807, respectively) were cultured in appropriate medium containing 10% heat-inactivated FBS (Dutscher, #SV30160-036), 1% penicillin/streptomycin (Gibco, #15140-122) and maintained in a humidified 37° C. incubator with 5% CO2.
LAT9991F-PAL was dissolved in DMSO to make a 10 mM stock solution. Intermediate solutions at 25 μM and 2.5 μM were made in the culture medium from the 10 mM stock solutions of LAT8881 and LAT9991F-PAL, respectively. A two-fold dilution into PBS of each intermediate solution was used for cell treatment. A stock solution at 10 mM was prepared for the other competitors as GSH, NSC61610 and ABA. A final concentration at 25 μM was used for the assay.
ibidiTreat Polymer Coverslips (Ibidi, #80826) were coated with serum during 1 hour at 37° C., followed by Laminin (100 μg\ml) (incubation for 1 hour at 37° C.) for NCI-H358 cells.
A549 or NCI-H358 cells were seeded onto ibidiTreat Polymer Coverslips (Ibidi, #80826) at 2.5×10^5 cells/cm^2 in 200 μl of complete medium. After 24 hours, the medium was removed and cells were washed with PBS (Gibco, #10010049) and then pre-treated with the Taxol at 1 μM for 3 hours or with H2O2 25 μM for 2 hours. Cells were washed twice with PBS. Induced stress cells or control cells were then exposed to LAT9991F-PAL (2.5 μM) in PBS for 30 minutes, in the presence or absence of LAT8881 (25 μM), or the other compounds used as a competitor, and pre-incubated 10 minutes. After treatment, cells were washed with cold PBS and UV-irradiated (365 nm) in PBS for 20 min. After fixation with 4% paraformaldehyde and permeabilization (0.5% Triton/PBS) (Image-iT™ Fixation/Permeabilization Kit, ThermoFisher, #R37602), the bioorthogonal reaction with Alexa Fluor 488 Alkyne (1 μM) (ThermoFisher, #A10267) was performed at 25° C. using the Click-iT™ Cell Reaction Buffer Kit (ThermoFisher, #C10269) according to the manufacturer protocol. After click reaction, cells were washed twice with PBS, blocked with 3% BSA in PBS for 1 hour and stained with Hoechst 33342 dye (ThermoFisher, #H1399).
For colocalization experiments, cells were further incubated overnight at 4° C. with a mouse anti-LanCL1 antibody (Invitrogen, PAS-57-107) (dilution 1:1000) or LanCL2 (Atlas Antibodies HPA019711) (dilution 1:1000) in 3% BSA in PBS, washed twice with PBS, and then incubated respectively with a goat anti-mouse […] (Molecular Probes, #A21467) (dilution 1:800) for 1 h in 3% BSA in PBS. After three further washing steps with PBS, cells were embedded in Ibidi Mounting Medium (ibidi, #50001). The specimens were kept at 4° C. in the dark until analysis.
Images were acquired on an Axiovert200M (Zeiss) microscope using a CSU-W1 Yokogawa confocal unit.

Substance | Cross-linking of PAL probe to tissue homogenates of nerve from neuropathic animals [1] | Molecular weight ranges of targets stained after gel separation ([1]; FIG. 3 legend, LAT9991-PAL 5 μM) | Molecular weight ranges of targets stained after gel separation ([1]; PAL probe cross-linked to nerve homogenates) | Binding of PAL probe to DRG neurons [2] | Competition of LAT9991F-PAL binding by excess competitor (NCI-H358 cells)
LAT9991-PAL: cyclic peptide of SEQ ID NO:12 (LAT9991) conjugated to the PAL (Photo-Activated Labelling) grouping (CRSVEGSCG; disulfide 1-8 (inferred); also: PAL group on N-terminal Cys-Arg part) | cross-linked; also recorded: shown to cross-link | 12-15 kDa, 37 kDa and 40-50 kDa | ˜12-15 kD, ˜37 kD and ˜50 kD | can be seen in DRG neurons from mice treated with paclitaxel (neuropathic pain model), but not in control untreated mice; also recorded: only to neurons from treated and neuropathic animals | –
YLRIVQCRSVEGSCGF [LAT8881, a cyclic peptide fragment of human growth hormone] | – | – | – | – | partially competed off
